# Test results published in paper PMC5903252 (British Journal of Clinical Pharmacology, 2018).
# Entries after “also recorded” stand apart in the source; their conditions may differ.
# Legend:
# aPTT = assay: Activated partial thromboplastin time; type: in vivo, human; settings: for Mean aPTT (± SEM) / aPTT % Change from baseline: immediately prior to the end of infusion
# PT/INR = assay: Prothrombin time/international normalized ratio; type: in vivo, human; settings: part A and part B
# [1] = Safety and tolerability, adverse events in healthy subjects; type: in vivo, human
# Renal safety assessment = type: in vivo, human
# rabbit models = settings: preclinical; cited from earlier work
# [2] = Plasma pharmacokinetics of BMS-962212 after IV infusion; settings: human, in vivo
# [3] = part A 2-h IV infusion 1.5 mg h^−1
# [4] = part A 2-h IV infusion 4 mg h^−1
# [5] = part A 2-h IV infusion 10 mg h^−1
# [6] = part A 2-h IV infusion 25 mg h^−1
# [7] = part B 5-day IV infusion 1 mg h^−1, Japanese subjects
# [8] = part B 5-day IV infusion 1 mg h^−1, non-Japanese subjects
# [9] = part B 5-day IV infusion 3 mg h^−1, Japanese subjects
# [10] = part B 5-day IV infusion 3 mg h^−1, non-Japanese subjects
# [11] = part B 5-day IV infusion 9 mg h^−1, Japanese subjects
# [12] = part B 5-day IV infusion 9 mg h^−1, non-Japanese subjects
# [13] = part B 5-day IV infusion 20 mg h^−1, Japanese subjects
# [14] = part B 5-day IV infusion 20 mg h^−1, non-Japanese subjects
# [15] = part A panel 1, 1.5 mg h^−1 2-h IV infusion, peak at 12 h after initiation
smiles,measurement,setting,value
CN1CCN(c2cccc3c2CCN(C(=O)/C=C/c2c(-n4cnnn4)ccc(Cl)c2F)[C@@H]3C(=O)Nc2ccc(C(=O)O)cc2)C(=O)C1 [BMS‐962212],Mean aPTT (± SEM),aPTT; [3],45.8 ± 2.5 s
same,aPTT % Change from baseline,aPTT; [3],35%
same,Mean aPTT (± SEM),aPTT; [4],49.2 ± 2.6 s
same,aPTT % Change from baseline,aPTT; [4],51%
same,Mean aPTT (± SEM),aPTT; [5],53.0 ± 4.2 s
same,aPTT % Change from baseline,aPTT; [5],81%
same,Mean aPTT (± SEM),aPTT; [6],61.3 ± 3.8 s
same,aPTT % Change from baseline,aPTT; [6],94%
same,maximum mean aPTT change from baseline,aPTT; part B 20 mg h^−1,92%
same,Mean aPTT (± SEM),aPTT; [7],37.7 ± 2.0 s
same,aPTT % Change from baseline,aPTT; [7],31%
same,Mean aPTT (± SEM),aPTT; [8],42.4 ± 1.8 s
same,aPTT % Change from baseline,aPTT; [8],31%
same,Mean aPTT (± SEM),aPTT; [9],46.1 ± 1.2 s
same,aPTT % Change from baseline,aPTT; [9],47%
same,Mean aPTT (± SEM),aPTT; [10],44.0 ± 1.9 s
same,aPTT % Change from baseline,aPTT; [10],49%
same,Mean aPTT (± SEM),aPTT; [11],52.0 ± 1.3 s
same,aPTT % Change from baseline,aPTT; [11],63%
same,Mean aPTT (± SEM),aPTT; [12],52.6 ± 6.8 s
same,aPTT % Change from baseline,aPTT; [12],76%
same,Mean aPTT (± SEM),aPTT; [13],63.0 ± 4.9 s
same,aPTT % Change from baseline,aPTT; [13],92%
same,Mean aPTT (± SEM),aPTT; [14],57.2 ± 4.0 s
same,aPTT % Change from baseline,aPTT; [14],83%
same,time to maximal effect on aPTT after initiation of the IV infusion,"aPTT; part B, day 1",approximately 2 h
same,PT/INR change,PT/INR,did not change; also recorded: no effect on PT/INR
same,tolerability,"[1]; 2-h and 5-day IV infusions, healthy subjects",well tolerated
same,AE frequency: ecchymosis,[1]; BMS-962212 groups,1.4%
same,AE frequency: flatulence,[1]; BMS-962212 groups,1.4%
same,AE frequency: headache,[1]; BMS-962212 groups,2.9%
same,AE frequency: infusion site pain or irritation,[1]; BMS-962212 groups,5.9%
same,AE frequency: nausea,[1]; BMS-962212 groups,2.9%
same,AE frequency: upper respiratory tract infection,[1]; BMS-962212 groups,2.9%
same,frequency of AEs,[1]; Japanese subjects,17.6%
same,subjects reporting AEs,[1]; all subjects assigned to BMS-962212 (12 of 68),17.6%
same,maximum tolerated dose,[1]; no dose-limiting AEs observed,not established
same,frequency of AEs,[1]; non-Japanese subjects,29.4%
same,subjects reporting AEs,"[1]; part A, subjects assigned to BMS-962212 (four of 34)",11.7%
same,subjects reporting AEs,"[1]; part B, subjects assigned to BMS-962212 (eight of 34)",23.5%
same,bleeding,[1]; parts A and B,no signs of bleeding
same,deaths or serious AEs,[1]; parts A and B,No deaths or serious AEs were reported
same,iohexol plasma clearance (GFR),"Renal safety assessment; panel 1A, 1.5 mg h^−1 2-h IV infusion, day −2 vs day 1, and vs placebo",No clinically relevant differences
same,serum creatinine mean increase,Renal safety assessment; [15],0.28 mg/dL
same,serum creatinine median increase,Renal safety assessment; [15],0.35 mg/dL
same,mean percentage decrease in eGFR (based on serum creatinine),"Renal safety assessment; part A panel 1, 1.5 mg h^−1, 12 h postdose",−22.58%
same,antithrombotic efficacy and haemostasis,rabbit models,shows antithrombotic efficacy at doses which preserve haemostasis
same,Tmax,[2],1 to 2 h
same,half-life,"[2]; 1 mg, t 1/2, part B 1 mg h^−1, Japanese ethnicity (n = 4), mean (CV%)",7.32 h
same,half-life,"[2]; 1 mg, t 1/2, part B 1 mg h^−1, Non-Japanese ethnicity (n = 4), mean (CV%)",5.3 h
same,half-life,"[2]; 3 mg, t 1/2, part B 3 mg h^−1, Japanese ethnicity (n = 4), mean (CV%)",6.42 h
same,half-life,"[2]; 3 mg, t 1/2, part B 3 mg h^−1, Non-Japanese ethnicity (n = 4), mean (CV%)",6.05 h
same,half-life,"[2]; 9 mg, t 1/2, part B 9 mg h^−1, Japanese ethnicity (n = 4), mean (CV%)",8.28 h
same,half-life,"[2]; 9 mg, t 1/2, part B 9 mg h^−1, Non-Japanese ethnicity (n = 4), mean (CV%)",8.32 h
same,half-life,"[2]; 20 mg, t 1/2, part B 20 mg h^−1, Japanese ethnicity (n = 4), mean (CV%)",8.28 h
same,half-life,"[2]; 20 mg, t 1/2, part B 20 mg h^−1, Non-Japanese ethnicity (n = 4), mean (CV%)",7.23 h
same,AUC(0-inf),"[2]; iv, 1 mg h^−1",6380 ng·h/mL
same,AUC(0-t),"[2]; iv, 1 mg h^−1",6300 ng·h/mL
same,Cmax,"[2]; iv, 1 mg h^−1",58.3 ng/mL
same,Tmax,"[2]; iv, 1 mg h^−1",24 h
same,clearance,"[2]; iv, 1 mg h^−1, CL, part B 5-day IV infusion 1 mg h^−1, geometric mean (CV%)",314 mL/min
same,Vd,"[2]; iv, 1 mg h^−1, Vz, part B 5-day IV infusion 1 mg h^−1, geometric mean (CV%)",188 L
same,half-life,"[2]; iv, 1 mg h^−1, t1/2, part B 5-day IV infusion 1 mg h^−1, geometric mean (CV%)",6.25 h
same,AUC(0-inf),"[2]; iv, 1.5 mg h^−1",180 ng·h/mL
same,AUC(0-t),"[2]; iv, 1.5 mg h^−1",122 ng·h/mL
same,Cmax,"[2]; iv, 1.5 mg h^−1",81.9 ng/mL
same,Tmax,"[2]; iv, 1.5 mg h^−1",1.5 h
